From patent US20100204265A1 (priority 2009, published 2010) come the findings set out here.

SMILES strings stand for the structures. Bounds are passed on as bounds.

As a reminder, the EC50 is the concentration at which the effect is half-maximal.

This test concerns ET (Huh-lucubineo-ET) cell line harboring I389luc-ubi-neo/NS3-3′/ET HCV replicon. The experiment in a line: Replicon assay (HCV replicon, luciferase readout). Type of test: cell-based. The following applies: Hepatitis C virus. As to the method:
A cell line, ET (Huh-lucubineo-ET) is used for screening of compounds for inhibiting HCV RNA dependent RNA polymerase. The ET cell line is stably transfected with RNA transcripts harboring a I389luc-ubi-neo/NS3-3′/ET; replicon with firefly luciferase-ubiquitin-neomycin phosphotransferase fusion protein and EMCV-IRES driven NS3-5B polyprotein containing the cell culture adaptive mutations (E1202G; T1280I; K1846T) (Krieger at al, 2001 and unpublished). The ET cells are grown in DMEM (Dulbeco's Modified Eagle's Medium), supplemented with 10% fetal calf serum, 2 mM Glutamine, Penicillin (100 IU/mL)/Streptomycin (100 μg/mL), 1× nonessential amino acids, and 250 μg/mL G418 (“Geneticin”). They are all available through Life Technologies (Bethesda, Md.). The cells are plated at 0.5−1.0×10^4 cells/well in the 96 well plates and incubated for 24 hrs before adding test compound. The compounds are added to the cells to achieve a final concentration of 0.1 nM to […] and a final DMSO (dimethylsulfoxide) concentration of 0.5%. Luciferase activity is measured 48-72 hours later by adding a lysis buffer and the substrate (Catalog number Glo-lysis buffer E2661 and Bright-Glo luciferase system E2620 Promega, Madison, Wis.). Cells should not be too confluent during the assay. Percent inhibition of replication data is plotted relative to no compound control. Under the same condition, cytotoxicity of the compounds are determined using cell proliferation reagent, WST-1 (Roche, Germany). The compounds showing antiviral activities, but no significant cytotoxicities are chosen to determine EC50 and TC50. For these determinations, a 10 point, 2-fold serial dilution for each compound was used, which spans a concentration range of 1000 fold. EC50 and similarly TC50 values were calculated by fitting % inhibition at each concentration to the following equation:
% inhibition=100%/[(EC50/[I])^b+1]
where b is Hill's coefficient.
For orientation: Replicon systems follow genome replication, usually without infectious particles.
Turning to `O=C(Cc1cn2cc(-c3ccoc3)cc(C(F)(F)F)c2n1)N1CCN(c2nccs2)CC1` [Compound 109, 2-(6-Furan-3-yl-8-trifluoromethyl-imidazo[1,2-a]pyridin-2-yl)-1-(4-thiazol-2-yl-piperazin-1-yl)-ethanone], the EC50 was above 50000 nM. The compound `O=C(Cc1cn2cc(-c3ccoc3)cc(C(F)(F)F)c2n1)N1CCCCC1c1ccccc1` (centres unmarked) [Compound 110, 2-(6-Furan-3-yl-8-trifluoromethyl-imidazo[1,2-a]pyridin-2-yl)-1-(2-phenyl-piperidin-1-yl)-ethanone] gave an EC50 of 49000 nM. Turning to `O=C(c1nc2c(C(F)(F)F)cc(-c3ccoc3)cn2c1Cl)N1CC=C(c2ncc[nH]2)CC1` [Compound 111, (3-Chloro-6-furan-3-yl-8-trifluoromethyl-imidazo[1,2-a]pyridin-2-yl)-[4-(1H-imidazol-2-yl)-3,6-dihydro-2H-pyridin-1-yl]-methanone], the EC50 was above 50000 nM.

`O=C(c1nc2c(C(F)(F)F)cc(-c3cn[nH]c3)cn2c1Cl)N1CC=C(c2cn[nH]c2)CC1` [Compound 112, [3-Chloro-6-(1H-pyrazol-4-yl)-8-trifluoromethyl-imidazo[1,2-a]pyridin-2-yl]-[4-(1H-pyrazol-4-yl)-3,6-dihydro-2H-pyridin-1-yl]-methanone] gave an EC50 of 368 nM. Next, `O=C(Cc1cn2cc(-c3ccoc3)cc(C(F)(F)F)c2n1)N1Cc2ccccc2C1` [Compound 113, 1-(1,3-Dihydro-isoindol-2-yl)-2-(6-furan-3-yl-8-trifluoromethyl-imidazo[1,2-a]pyridin-2-yl)-ethanone]: 8630 nM; `O=C(c1nc2c(C(F)(F)F)cc(-c3ccoc3)cn2c1Cl)N1CCC(N2CCCCC2=O)CC1` [Compound 114, 1′-(3-Chloro-6-furan-3-yl-8-trifluoromethyl-imidazo[1,2-a]pyridine-2-carbonyl)-[1,4′]bipiperidinyl-2-one]: 1330 nM; `CCOc1cccnc1C1=CCN(C(=O)c2nc3c(C(F)(F)F)cc(-c4ccoc4)cn3c2Cl)CC1` [Compound 115, (3-Chloro-6-furan-3-yl-8-trifluoromethyl-imidazo[1,2-a]pyridin-2-yl)-(3-ethoxy-3′,6′-dihydro-2′H-[2,4′]bipyridinyl-1′-yl)-methanone]: 22500 nM. To `O=C(c1cc2c(C(F)(F)F)cc(-c3cccs3)nc2[nH]1)N1CC=C(c2ncccc2F)CC1` [Compound 116, (3-Fluoro-3′,6′-dihydro-2′H-[2,4′]bipyridinyl-1′-yl)-(6-thiophen-2-yl-4-trifluoromethyl-1H-pyrrolo[2,3-b]pyridin-2-yl)-methanone] belongs 24400 nM; to `O=C(c1cc2nc(-c3cccs3)cc(C(F)(F)F)c2[nH]1)N1CC=C(c2ncccc2F)CC1` [Compound 117, (3-Fluoro-3′,6′-dihydro-2′H-[2,4′]bipyridinyl-1′-yl)-(5-thiophen-2-yl-7-trifluoromethyl-1H-pyrrolo[3,2-b]pyridin-2-yl)-methanone], 23900 nM. `O=C(c1nc2c(C(F)(F)F)cc(-c3nccs3)cn2c1Cl)N1CC=C(c2ncccc2F)CC1` [Compound 118, (3 -Chloro-6-thiazol-2-yl-8-trifluoromethyl-imidazo[1,2-a]pyridin-2-yl)-(3-fluoro-3′,6′-dihydro-2′H-[2,4′]bipyridinyl-1′-yl)-methanone] displayed an EC50 of 655 nM. `O=C(c1nc2c(C(F)(F)F)cc(-c3cncs3)cn2c1Cl)N1CC=C(c2ncccc2F)CC1` [Compound 119, (3-Chloro-6-thiazol-5-yl-8-trifluoromethyl-imidazo[1,2-a]pyridin-2-yl)-(3-fluoro-3′,6′-dihydro-2′H-[2,4′]bipyridinyl-1′-yl)-methanone]: a half-maximal effect (EC50) was put at 354 nM. Consider `O=C(c1nc2c(C(F)(F)F)cc(-c3cscn3)cn2c1Cl)N1CC=C(c2ncccc2F)CC1` [Compound 120, (3-Chloro-6-thiazol-4-yl-8-trifluoromethyl-imidazo[1,2-a]pyridin-2-yl)-(3-fluoro-3′,6′-dihydro-2′H-[2,4′]bipyridinyl-1′-yl)-methanone], for which a half-maximal effect (EC50) was put at 3040 nM. To `O=C(c1nc2c(C(F)(F)F)cc(C3=CCNC3)cn2c1Cl)N1CC=C(c2ncccc2F)CC1` [Compound 121, [3-Chloro-6-(2,5-dihydro-1H-pyrrol-3-yl)-8-trifluoromethyl-imidazo[1,2-a]pyridin-2-yl]-(3-fluoro-3′,6′-dihydro-2′H-[2,4′]bipyridinyl-1′-yl)-methanone] belongs 2540 nM; to `O=C(c1nc2c(C(F)(F)F)cc(-c3c[nH]cn3)cn2c1Cl)N1CC=C(c2ncccc2F)CC1` [Compound 122, [3-Chloro-6-(1H-imidazol-4-yl)-8-trifluoromethyl-imidazo[1,2-a]pyridin-2-yl]-(3-fluoro-3′,6′-dihydro-2′H-[2,4′]bipyridinyl-1′-yl)-methanone], 5890 nM. As to `O=C(c1nc2c(C(F)(F)F)cc(-c3cccs3)cn2c1Cl)N1CC=C(c2ncccc2F)CC1` [Compound 123, (3-Chloro-6-thiophen-2-yl-8-trifluoromethyl-imidazo[1,2-a]pyridin-2-yl)-(3-fluoro-3′,6′-dihydro-2′H-[2,4′]bipyridinyl-1′-yl)-methanone], the 50% effective concentration (EC50) was 147 nM. Take `O=C(c1nc2c(C(F)(F)F)cc(-c3ccccc3)cn2c1Cl)N1CC=C(c2ncccc2F)CC1` [Compound 124, (3-Chloro-6-phenyl-8-trifluoromethyl-imidazo[1,2-a]pyridin-2-yl)-(3-fluoro-3′,6′-dihydro-2′H-[2,4′]bipyridinyl-1′-yl)-methanone]: the EC50 is 2480 nM. Next, `O=C(c1nc2c(C(F)(F)F)cc(Br)cn2c1Cl)N1CC=C(c2ncccc2F)CC1` [Compound 125, (6-Bromo-3-chloro-8-trifluoromethyl-imidazo[1,2-a]pyridin-2-yl)-(3-fluoro-3′,6′-dihydro-2′H-[2,4′]bipyridinyl-1′-yl)-methanone]: 29.3 nM; `C=Cc1cc(C(F)(F)F)c2nc(C(=O)N3CC=C(c4ncccc4F)CC3)c(Cl)n2c1` [Compound 126, (3-Chloro-8-trifluoromethyl-6-vinyl-imidazo[1,2-a]pyridin-2-yl)-(3-fluoro-3′,6′-dihydro-2′H-[2,4′]bipyridinyl-1′-yl)-methanone]: 27.5 nM. As for `O=C(c1nc2c(C(F)(F)F)cc(/C=C/C3CC3)cn2c1Cl)N1CC=C(c2ncccc2F)CC1` [Compound 127, [3-Chloro-6-(2-cyclopropyl-vinyl)-8-trifluoromethyl-imidazo[1,2-a]pyridin-2-yl]-(3-fluoro-3′,6′-dihydro-2′H-[2,4′]bipyridinyl-1′-yl)-methanone], the EC50 was 428 nM. For `O=C(Cc1cccc(F)c1)NCc1cn2cc(-c3ccoc3)cc(C(F)(F)F)c2n1` [Compound 128, 2-(3-Fluoro-phenyl)-N-(6-furan-3-yl-8-trifluoromethyl-imidazo[1,2-a]pyridin-2-ylmethyl)-acetamide], the response was half-maximal at 4830 nM (EC50). Consider `O=C(Cc1ccccc1F)NCc1cn2cc(-c3ccoc3)cc(C(F)(F)F)c2n1` [Compound 129, 2-(2-Fluoro-phenyl)-N-(6-furan-3-yl-8-trifluoromethyl-imidazo[1,2-a]pyridin-2-ylmethyl)-acetamide], for which the EC50 stood at 20300 nM. In turn, `O=C(NCc1cn2cc(-c3ccoc3)cc(C(F)(F)F)c2n1)c1ccccc1` [Compound 130, N-(6-Furan-3-yl-8-trifluoromethyl-imidazo[1,2-a]pyridin-2-ylmethyl)-benzamide] displayed an EC50 of 49800 nM. As to `O=C(c1nc2c(C(F)(F)F)cc(-c3cn[nH]c3)cn2c1Cl)N1CC=C(c2ccoc2)C1` [Compound 131, [3-Chloro-6-(1H-pyrazol-4-yl)-8-trifluoromethyl-imidazo[1,2-a]pyridin-2-yl]-(3-furan-3-yl-2,5-dihydro-pyrrol-1-yl)-methanone], the EC50 is 268 nM. As for `O=C(c1nc2c(C(F)(F)F)cc(-c3cn[nH]c3)cn2c1Cl)N1CC=C(c2ccsc2)C1` [Compound 132, [3-Chloro-6-(1H-pyrazol-4-yl)-8-trifluoromethyl-imidazo[1,2-a]pyridin-2-yl]-(3-thiophen-3-yl-2,5-dihydro-pyrrol-1-yl)-methanone], the EC50 turned out to be 107 nM.

The compound `O=C(c1nc2c(C(F)(F)F)cc(-c3cn[nH]c3)cn2c1Cl)N1CC=C(c2cnoc2)C1` [Compound 133, [3-Chloro-6-(1H-pyrazol-4-yl)-8-trifluoromethyl-imidazo[1,2-a]pyridin-2-yl]-(3-isoxazol-4-yl-2,5-dihydro-pyrrol-1-yl)-methanone] displayed an EC50 of 3470 nM.

For the compound `O=C(c1nc2c(C(F)(F)F)cc(-c3cn[nH]c3)cn2c1Cl)N1CC=C(c2cccnc2)C1` [Compound 134, [3-Chloro-6-(1H-pyrazol-4-yl)-8-trifluoromethyl-imidazo[1,2-a]pyridin-2-yl]-(3-pyridin-3-yl-2,5-dihydro-pyrrol-1-yl)-methanone], the midpoint of the response, the EC50, lay at 188 nM.
